Data taken from patent publication US7638518B2, “Substituted pyrazole kinase inhibitors” (Janssen Pharmaceutica, priority 2006, dated 2009).

Experiments:
[1] = target: T1, CDK1 (Homo sapiens, UniProt P06493); test: CDK-1 kinase screening assay (33P-ATP FlashPlate); assay type: biochemical; details: 10 μM ATP, biotinylated histone-H1 peptide substrate, 1 hr at 30° C.
T1 construct: purchased New England Biolabs, Beverly, Mass; 6020; host or cells: insect cells
Procedure: (§1) A kinase reaction mixture was prepared containing 50 mM Tris-HCl pH=8, 10 mM MgCl2, 0.1 mM […], 1 mM DTT, 10 μM ATP, 0.025 μM biotinylated histone-H1 peptide substrate and 0.2 μCuries per well ^33P-γ-ATP (2000-3000 Ci/mmol). 70 μL of the kinase reaction mixture was dispensed into the well of a streptavidin coated FlashPlate™ (Cat. # SMP103, NEN, Boston, Mass.).
(§2) Test compound stock in 100% DMSO (1 μL) was added to the wells resulting in a final concentration of 1% DMSO in the reaction with a 100 μL final reaction volume. Each enzyme was diluted in 50 mM Tris-HCl pH=8.0, 0.1% BSA and 30 μL was added to each well to initiate the reaction. The reaction was incubated for one hour at 30° C. At the end of the 1 hr incubation, the reaction was terminated by aspirating the mixture from the plate and washing the wells twice with PBS containing 100 mM EDTA. The biotinylated peptide substrate became immobilized on the Flashplate™ and the incorporation of ^33P-γ-ATP was measured by reading the plate on a scintillation counter. Inhibition of the enzymatic activity was measured by observing a reduced amount of ^33P-γ-ATP incorporated into the immobilized peptide.
The CDK1 enzyme was isolated from insect cells expressing both the human CDK1 catalytic subunit (Accession number NM_001786) and its positive regulatory subunit cyclin B (New England Biolabs, Beverly, Mass.; Cat. # 6020). The assay used 30 ng of the N-terminal biotinylated peptide biotin-[…]-amide (Cyclin dependent kinase 1) per well.
(§3) Aurora-A is a fusion protein containing a polyhistidine tag at the N terminus followed by the full length protein encoding the murine Aurora-A (Accession number GB BC014711) expressed and purified from sf9 insect cells. The assay used 400 ng of the N-terminal biotinylated peptide biotin-[…]-amide (Aurora-A) per well. A maximum and minimum signal for the assay was determined on each plate. The percent inhibition of a test compound was calculated according to the formula: […]
(§4) For a series of test concentrations, the IC50 was derived by graphing percent inhibition against the log of the concentrations tested for a given compound with results shown in Table 1.

[2] = test system: HeLa cervical adenocarcinoma; test: Cell proliferation inhibition assay (14C-thymidine incorporation), HeLa; assay type: cell-based; details: Homo sapiens, HeLa cells
Source text: (§5) The ability of a test compound to inhibit unregulated cell proliferation may be determined by measuring incorporation of ^14C-labelled thymidine into newly synthesized DNA within cell lines derived from carcinomas originating from several tissues. Accordingly, the anti-proliferative effect of a compound on cells with a variety of phenotypes may be determined.
(§6) Carcinoma cell lines include those such as HeLa cervical adenocarcinoma (American Type Culture Collection (ATCC), Virginia, Cat. #CCL-2), A375 malignant melanoma (ATCC CRL-1619), and HCT-116 colon carcinoma (CCL-247).
(§7) The carcinoma cells are trypsinized and counted. The cells (3000-8000 count) are added to each well of a 96-well CytoStar tissue culture treated scintillating microplate (Amersham #RPNQ0160) in complete medium (100 μL) and the plate is then incubated in complete medium for 24 hrs at 37° C. in an inert atmosphere containing 5% CO2. Test compound (1 μL) in 100% DMSO is added to the plate test-wells with DMSO only added to control-wells. The plate is incubated in complete medium for a second 24 hr period at 37° C. in an atmosphere containing 5% CO2.
(§8) An aliquot of a solution of Methyl ^14C-thymidine (56 mC/mmol) (NEN #NEC568 or Amersham #CFA532) and complete medium (20 uL to provide 0.2 μCi/well) is then added to each well and the plate is incubated for a third 24 hr period at 37° C. in an atmosphere containing 5% CO2. The plate contents are then discarded, the plate is washed twice with PBS (200 μL) and then PBS (200 μL) is added to each well. The plate is sealed and the degree of methyl ^14C-thymidine incorporation is quantified on a Packard Top Count.
(§9) A maximum and minimum signal for the assay was determined on each plate. The percent inhibition of a test compound was calculated according to the formula: […]
(§10) For a series of test concentrations, the IC50 was derived by graphing percent inhibition against the log of the concentrations tested for a given compound with results shown in Table 3.

[3] = test system: A375 malignant melanoma; test: Cell proliferation inhibition assay (14C-thymidine incorporation), A375; assay type: cell-based; details: Homo sapiens, A-375, A375 cells
Source text: as §5, §6, §7, §8, §9, §10

[4] = target: T2, Aurora-A (Mus musculus, UniProt P97477); test: Aurora-A kinase screening assay (33P-ATP FlashPlate); assay type: biochemical; details: 10 μM ATP, murine full length Aurora-A, 1 hr at 30° C.
T2 construct: followed by the full length protein encoding the murine Aurora-A; polyhistidine (N); made in house; host or cells: sf9 insect cells
T2 sequence (P97477 1-395): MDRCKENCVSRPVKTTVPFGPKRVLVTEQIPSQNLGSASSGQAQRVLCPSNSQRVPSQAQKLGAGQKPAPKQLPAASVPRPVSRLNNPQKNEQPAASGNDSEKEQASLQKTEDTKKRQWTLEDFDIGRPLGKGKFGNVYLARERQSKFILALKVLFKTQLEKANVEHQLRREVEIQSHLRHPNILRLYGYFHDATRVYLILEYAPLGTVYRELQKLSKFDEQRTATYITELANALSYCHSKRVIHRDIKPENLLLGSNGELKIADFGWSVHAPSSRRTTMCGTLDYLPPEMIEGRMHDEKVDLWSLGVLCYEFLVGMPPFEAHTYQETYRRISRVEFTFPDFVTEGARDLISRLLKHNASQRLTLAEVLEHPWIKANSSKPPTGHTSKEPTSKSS

[5] = test system: HCT-116 colon carcinoma; test: Cell proliferation inhibition assay (14C-thymidine incorporation), HCT-116; assay type: cell-based; details: Homo sapiens, HCT-116 cells
Source text: as §5, §6, §7, §8, §9, §10

[6] = target: T3, VEGFR2 (Rattus norvegicus, UniProt O08775); test: VEGFR2 kinase screening assay (33P-ATP FlashPlate); assay type: biochemical; details: 10 μM ATP, rat VEGF-R2 kinase domain, 1 hr at 30° C.
T3 construct: polyhistidine (N)

[7] = target: T4, HER2 (Homo sapiens, UniProt P04626); test: HER2 kinase screening assay (33P-ATP FlashPlate); assay type: biochemical; details: 10 μM ATP, biotin-poly(GT) 4:1 substrate, 1 hr at 30° C.
T4 construct: GST (Glutathione-S-Transferase) (N); HIS6 (N); Thrombin cleavage site (N); purchased Proqinase, Freiburg, Germany
Procedure: as §1, §2
The HER2 construct consisted of a fusion of GST (Glutathione-S-Transferase), HIS6 Thrombin and the nucleotides encoding amino acids 679 to 1255 of HER-2 (Accession number M11730) (Proqinase, Freiburg, Germany). The assay used 200 ng of the N-terminal biotinylated peptide biotin-poly(GT) 4:1 (HER2) per well.
as §3, §4

T3 sequence (O08775 786-1343): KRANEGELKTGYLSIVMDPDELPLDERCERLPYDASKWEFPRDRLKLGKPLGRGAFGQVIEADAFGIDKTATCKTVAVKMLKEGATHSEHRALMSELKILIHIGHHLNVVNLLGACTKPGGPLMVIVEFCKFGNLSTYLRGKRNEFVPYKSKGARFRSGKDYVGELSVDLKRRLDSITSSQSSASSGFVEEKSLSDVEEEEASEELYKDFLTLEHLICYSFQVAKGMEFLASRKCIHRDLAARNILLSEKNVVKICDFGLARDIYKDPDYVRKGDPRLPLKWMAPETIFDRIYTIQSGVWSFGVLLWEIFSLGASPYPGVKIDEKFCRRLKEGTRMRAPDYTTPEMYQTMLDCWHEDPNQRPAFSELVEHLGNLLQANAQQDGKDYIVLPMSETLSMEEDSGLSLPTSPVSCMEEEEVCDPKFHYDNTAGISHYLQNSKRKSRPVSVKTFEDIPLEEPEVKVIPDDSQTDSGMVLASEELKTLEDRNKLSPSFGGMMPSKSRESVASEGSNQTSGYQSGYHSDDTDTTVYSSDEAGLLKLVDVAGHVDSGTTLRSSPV
T4 sequence (P04626 679-1255): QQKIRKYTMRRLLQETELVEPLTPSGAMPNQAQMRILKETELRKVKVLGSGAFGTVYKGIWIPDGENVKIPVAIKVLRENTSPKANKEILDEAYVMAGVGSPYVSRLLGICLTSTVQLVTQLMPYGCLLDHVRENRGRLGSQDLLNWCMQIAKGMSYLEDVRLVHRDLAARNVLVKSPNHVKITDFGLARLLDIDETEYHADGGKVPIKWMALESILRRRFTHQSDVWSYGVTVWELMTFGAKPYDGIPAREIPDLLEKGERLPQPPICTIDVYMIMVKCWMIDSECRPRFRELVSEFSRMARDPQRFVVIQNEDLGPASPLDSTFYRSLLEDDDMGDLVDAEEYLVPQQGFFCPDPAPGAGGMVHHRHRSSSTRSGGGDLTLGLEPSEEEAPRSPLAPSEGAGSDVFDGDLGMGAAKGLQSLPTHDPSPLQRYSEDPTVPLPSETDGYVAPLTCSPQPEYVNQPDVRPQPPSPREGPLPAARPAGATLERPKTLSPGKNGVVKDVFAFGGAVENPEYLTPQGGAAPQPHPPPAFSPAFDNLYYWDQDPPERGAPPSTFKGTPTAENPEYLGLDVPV
T1 sequence (P06493 whole entry): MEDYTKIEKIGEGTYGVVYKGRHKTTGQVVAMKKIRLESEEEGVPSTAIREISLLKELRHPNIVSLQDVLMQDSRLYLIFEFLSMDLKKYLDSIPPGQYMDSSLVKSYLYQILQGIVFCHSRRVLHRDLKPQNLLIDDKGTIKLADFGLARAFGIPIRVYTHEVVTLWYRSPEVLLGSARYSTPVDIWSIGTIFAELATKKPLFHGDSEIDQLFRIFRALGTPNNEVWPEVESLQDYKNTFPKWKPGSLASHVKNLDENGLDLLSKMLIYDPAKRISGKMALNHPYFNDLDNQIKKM
T1 sequence (P14635 whole entry partner): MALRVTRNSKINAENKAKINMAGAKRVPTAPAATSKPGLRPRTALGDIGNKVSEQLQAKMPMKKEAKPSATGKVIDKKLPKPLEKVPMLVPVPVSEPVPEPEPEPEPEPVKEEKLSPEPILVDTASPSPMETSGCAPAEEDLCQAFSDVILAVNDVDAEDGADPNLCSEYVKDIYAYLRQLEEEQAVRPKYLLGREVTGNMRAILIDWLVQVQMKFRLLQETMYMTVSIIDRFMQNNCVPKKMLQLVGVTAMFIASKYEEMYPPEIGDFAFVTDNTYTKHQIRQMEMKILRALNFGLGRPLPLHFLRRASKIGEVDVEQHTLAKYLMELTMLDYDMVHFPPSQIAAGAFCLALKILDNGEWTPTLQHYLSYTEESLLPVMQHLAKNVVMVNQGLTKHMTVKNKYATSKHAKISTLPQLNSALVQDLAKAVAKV

Row | IC50 [1] | IC50 [2] | IC50 [3] | IC50 [4] | IC50 [5] | IC50 [6] | IC50 [7] | Compound
1 | 32.8 nM | 1800 nM | 2500 nM | 513 nM | 2160 nM | 967 nM | – | COc1ccc2nc(-c3n[nH]cc3C=Cc3cccnc3)[nH]c2c1 [Cpd 2, 6-methoxy-2-[4-(2-pyridin-3-yl-vinyl)-1H-pyrazol-3-yl]-1H-benzoimidazole]
2 | 4.59 nM | 615 nM | 553 nM | 588 nM | 187 nM | 821 nM | 3030 nM | CCNCc1cncc(C=Cc2c[nH]nc2-c2nc3ccc(OC)cc3[nH]2)c1 [Cpd 1, ethyl-(5-{2-[3-(6-methoxy-1H-benzoimidazol-2-yl)-1H-pyrazol-4-yl]-vinyl}-pyridin-3-ylmethyl)-amine]
3 | 23 nM | 992 nM | 1030 nM | 625 nM | 1040 nM | 636 nM | 6840 nM | COc1ccc2nc(-c3n[nH]cc3C=Cc3ccc(N)nc3)[nH]c2c1 [Cpd 3, 5-{2-[3-(6-Methoxy-1H-benzoimidazol-2-yl)-1H-pyrazol-4-yl]-vinyl}-pyridin-2-ylamine]
4 | 148 nM | 2820 nM | 2960 nM | – | 2680 nM | 613 nM | – | COc1ccc2nc(-c3n[nH]cc3C=Cc3cncc4ccccc34)[nH]c2c1 [Cpd 6, 4-{2-[3-(6-methoxy-1H-benzoimidazol-2-yl)-1H-pyrazol-4-yl]-vinyl}-isoquinoline]
5 | 46.6 nM | 886 nM | 913 nM | 399 nM | 748 nM | 653 nM | 12000 nM | COc1cncc(C=Cc2c[nH]nc2-c2nc3ccc(OC)cc3[nH]2)c1 [Cpd 10, 6-methoxy-2-{4-[2-(5-methoxy-pyridin-3-yl)-vinyl]-1H-pyrazol-3-yl}-1H-benzoimidazole]
6 | > 1000 nM | – | – | 4190 nM | – | 1730 nM | – | COc1ccc2nc(-c3n[nH]cc3C=Cc3cncc(C#N)c3)[nH]c2c1 [Cpd 7, 5-{2-[3-(6-methoxy-1H-benzoimidazol-2-yl)-1H-pyrazol-4-yl]-vinyl}-nicotinonitrile]
7 | 886 nM | 4370 nM | 3100 nM | > 100000 nM | 3130 nM | 1280 nM | – | COC(=O)c1cncc(C=Cc2c[nH]nc2-c2nc3ccc(OC)cc3[nH]2)c1 [Cpd 9, 5-{2-[3-(6-methoxy-1H-benzoimidazol-2-yl)-1H-pyrazol-4-yl]-vinyl}-nicotinic acid methyl ester]
8 | 157 nM | 2760 nM | 4300 nM | 549 nM | 3190 nM | – | – | COc1ccc2nc(-c3n[nH]cc3C=Cc3cnccc3C)[nH]c2c1 [Cpd 5, 6-methoxy-2-{4-[2-(4-methyl-pyridin-3-yl)-vinyl]-1H-pyrazol-3-yl}-1H-benzoimidazole]
9 | 29.1 nM | 464 nM | 864 nM | > 10000 nM | 194 nM | 286 nM | 9320 nM | CN1CCN(c2ccc3nc(-c4n[nH]cc4C=Cc4cccnc4)[nH]c3c2)CC1 [Cpd 8, 6-(4-methyl-piperazin-1-yl)-2-[4-(2-pyridin-3-yl-vinyl)-1H-pyrazol-3-yl]-1H-benzoimidazole]
10 | 111 nM | 3700 nM | 3620 nM | > 100000 nM | 2460 nM | 1350 nM | 36600 nM | CCNC(=O)c1cncc(C=Cc2c[nH]nc2-c2nc3ccc(OC)cc3[nH]2)c1 [Cpd 11, N-ethyl-5-{2-[3-(6-methoxy-1H-benzoimidazol-2-yl)-1H-pyrazol-4-yl]-vinyl}-nicotinamide]
